Data on three compounds can be found in paper PMC6749586, “Design, Synthesis, and Anticancer Effect Studies of Iridium(III) Polypyridyl Complexes against SGC-7901 Cells” (Molecules, 2019).

This assay deals with SGC-7901 cells. The assay can be described thus: Mitochondrial membrane potential assay with JC-1. The class given is cell-based, human. The conditions noted are these: 24 h; for Ratio of red/green JC-1 fluorescence intensity (R), complex + NAC: 4.0 µM 1, 15.0 µM 2, 15.0 µM 3, in the presence of NAC; for Ratio of red/green JC-1 fluorescence intensity (R): substance alone: 4.0 µM 1, 15.0 µM 2, 15.0 µM 3, CCCP or NAC, control 12.03. The procedure:
The SGC-7901 cells were seeded into a 12-well plate at a density of 1.5 × 10^5 cells per well and incubated to attach at 37 °C in 5% CO2. Overnight, the cells were treated with complexes 1–3 for 24 h. CCCP was used as a positive control. Then, the cells were incubated with JC-1 for 30 min at room temperature, after which the remaining dye was washed away with PBS. The samples were then observed under the ImageXpress Micro XLS system and flow cytometry was employed to quantify the fluorescence intensity.

For `F[P-](F)(F)(F)(F)F.O=[N+]([O-])c1cc2ccc[n+]3c2c2c1ccc[n+]2[Ir-5]312([c]3ccccc3-c3cccc[n+]31)[c]1ccccc1-c1cccc[n+]12` [Complex 1, [Ir(Hppy)2(NP)]PF6], the “Ratio of red/green JC-1 fluorescence intensity (R), complex + NAC” value was 1.86 and the “Ratio of red/green JC-1 fluorescence intensity (R)” value was determined as 0.43.
As for `F[P-](F)(F)(F)(F)F.Nc1c(N)c2cccnc2c2ncccc12.[Ir+3].[c-]1ccccc1-c1ccccn1.[c-]1ccccc1-c1ccccn1` [Complex 3, [Ir(Hppy)2(DAP)]PF6], the “Ratio of red/green JC-1 fluorescence intensity (R)” value was 1.49.
On to `F[P-](F)(F)(F)(F)F.Nc1c([N+](=O)[O-])c2cccnc2c2ncccc12.[Ir+3].[c-]1ccccc1-c1ccccn1.[c-]1ccccc1-c1ccccn1` [Complex 2, [Ir(Hppy)2(NAP)]PF6], for which the “Ratio of red/green JC-1 fluorescence intensity (R), complex + NAC” value worked out at 17.99 and the “Ratio of red/green JC-1 fluorescence intensity (R)” value stood at 7.12.
